Data taken from paper PMC8079033, “Design, synthesis, anticancer evaluation, and molecular modelling studies of novel tolmetin derivatives as potential VEGFR-2 inhibitors and apoptosis inducers” (Journal of Enzyme Inhibition and Medicinal Chemistry, 2021).

Experiments:
KM12 = experiment: NCI 60-cell line one-dose antiproliferative screen (SRB); assay type: cell-based; details: Homo sapiens, read-out: growth inhibition % (GI%)
Procedure, shortened: (§1)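 Tumour cells pre-incubated 24 h, then dosed once at 10 µM (from DMSO stock diluted in medium with gentamicin). After 48 h, TCA fixation and SRB staining; absorbance 515 nm converted to growth inhibition percentage.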

HCT-15 = experiment: as above; assay type: cell-based; details: Homo sapiens, read-out: growth inhibition % (GI%)
Procedure, shortened: as §1

U251 = experiment: as above; assay type: cell-based; details: Homo sapiens, U-251, read-out: growth inhibition % (GI%)
Procedure, shortened: as §1

K-562 = experiment: as above; assay type: cell-based; details: Homo sapiens, K562, read-out: growth inhibition % (GI%)
Procedure, shortened: as §1

UACC-62 = experiment: as above; assay type: cell-based; details: Homo sapiens, read-out: growth inhibition % (GI%)
Procedure, shortened: as §1

SN 12 C = experiment: as above; assay type: cell-based; details: Homo sapiens, SN12C, read-out: growth inhibition % (GI%)
Procedure, shortened: as §1

MDA-MB-231/ATCC = experiment: as above; assay type: cell-based; details: Homo sapiens, read-out: growth inhibition % (GI%)
Procedure, shortened: as §1

MDA-MB-468 = experiment: as above; assay type: cell-based; details: Homo sapiens, read-out: growth inhibition % (GI%)
Procedure, shortened: as §1

SK-MEL-2 = experiment: as above; assay type: cell-based; details: Homo sapiens, read-out: growth inhibition % (GI%)
Procedure, shortened: as §1

RPMI-8226 = experiment: as above; assay type: cell-based; details: Homo sapiens, read-out: growth inhibition % (GI%)
Procedure, shortened: as §1

UO-31 = experiment: as above; assay type: cell-based; details: Homo sapiens, read-out: growth inhibition % (GI%)
Procedure, shortened: as §1

SK-OV-3 = experiment: as above; assay type: cell-based; details: Homo sapiens, read-out: growth inhibition % (GI%)
Procedure, shortened: as §1

DU-145 = experiment: as above; assay type: cell-based; details: Homo sapiens, read-out: growth inhibition % (GI%)
Procedure, shortened: as §1

CCRF-CEM = experiment: as above; assay type: cell-based; details: Homo sapiens, read-out: growth inhibition % (GI%)
Procedure, shortened: as §1

ACHN = experiment: as above; assay type: cell-based; details: Homo sapiens, read-out: growth inhibition % (GI%)
Procedure, shortened: as §1

HS 578 T = experiment: as above; assay type: cell-based; details: Homo sapiens, read-out: growth inhibition % (GI%)
Procedure, shortened: as §1

OVCAR-3 = experiment: as above; assay type: cell-based; details: Homo sapiens, read-out: growth inhibition % (GI%)
Procedure, shortened: as §1

HCC-2998 = experiment: as above; assay type: cell-based; details: Homo sapiens, read-out: growth inhibition % (GI%)
Procedure, shortened: as §1

TK-10 = experiment: as above; assay type: cell-based; details: Homo sapiens, read-out: growth inhibition % (GI%)
Procedure, shortened: as §1

UACC-257 = experiment: as above; assay type: cell-based; details: Homo sapiens, read-out: growth inhibition % (GI%)
Procedure, shortened: as §1

SR = experiment: as above; assay type: cell-based; details: Homo sapiens, read-out: growth inhibition % (GI%)
Procedure, shortened: as §1

SK-MEL-28 = experiment: as above; assay type: cell-based; details: Homo sapiens, read-out: growth inhibition % (GI%)
Procedure, shortened: as §1

NCI-H460 = experiment: as above; assay type: cell-based; details: Homo sapiens, read-out: growth inhibition % (GI%)
Procedure, shortened: as §1

MALME-3M = experiment: as above; assay type: cell-based; details: Homo sapiens, read-out: growth inhibition % (GI%)
Procedure, shortened: as §1

Colo 205 = experiment: as above; assay type: cell-based; details: Homo sapiens, read-out: growth inhibition % (GI%)
Procedure, shortened: as §1

HT29 = experiment: as above; assay type: cell-based; details: Homo sapiens, HT-29, read-out: growth inhibition % (GI%)
Procedure, shortened: as §1

| SMILES | melting point | inhibition at 10 µM (KM12) | inhibition at 10 µM (HCT-15) | inhibition at 10 µM (U251) | inhibition at 10 µM (K-562) | inhibition at 10 µM (UACC-62) | inhibition at 10 µM (SN 12 C) | inhibition at 10 µM (MDA-MB-231/ATCC) | inhibition at 10 µM (MDA-MB-468) | inhibition at 10 µM (SK-MEL-2) | inhibition at 10 µM (RPMI-8226) | inhibition at 10 µM (UO-31) | inhibition at 10 µM (SK-OV-3) | inhibition at 10 µM (DU-145) | inhibition at 10 µM (CCRF-CEM) | inhibition at 10 µM (ACHN) | inhibition at 10 µM (HS 578 T) | inhibition at 10 µM (SR) | inhibition at 10 µM (NCI-H460) | inhibition at 10 µM (MALME-3M) | also measured |
| --- | --- | --- | --- | --- | --- | --- | --- | --- | --- | --- | --- | --- | --- | --- | --- | --- | --- | --- | --- | --- | --- |
| Cc1ccc(C(=O)c2ccc(CC(=O)NN3C(=O)C=CC3=O)n2C)cc1 [Compound 7b, N-(2,5-Dioxo-2,5-dihydro-1H-pyrrol-1-yl)-2–(1-methyl-5–(4-methylbenzoyl)-1H-pyrrol-2-yl)acetamide] | 193 to 195 °C | < 10% | < 10% | < 10% | 16.5% | < 10% | 14.8% | 11.6% | < 10% | < 10% | < 10% | 35.3% | < 10% | < 10% | < 10% | 11.1% | < 10% | – | – | – | – |
| Cc1ccc(C(=O)c2ccc(CC(=O)NN=Cc3ccccc3O)n2C)cc1 [Compound 5a, N′-(2-Hydroxybenzylidene)-2–(1-methyl-5–(4-methylbenzoyl)-1H-pyrrol-2-yl)aceto hydrazide] | 222 to 224 °C | 19.6% | 56.5% | 23.8% | 15.8% | 12.8% | 10.2% | 17.4% | 18.9% | 10.4% | 18.6% | 59.3% | < 10% | 10.4% | 45.9% | 46.8% | – | 43.8% | 23.4% | < 10% | inhibition at 10 µM (OVCAR-3): 19.7%; inhibition at 10 µM (HCC-2998): < 10%; inhibition at 10 µM (TK-10): 14.9%; inhibition at 10 µM (UACC-257): < 10%; inhibition at 10 µM (SK-MEL-28): 15.7% |
| Cc1ccc(C(=O)c2ccc(CC(=O)NN=Cc3c[nH]c4ccccc34)n2C)cc1 [Compound 5f, N′-((1H-Indol-3-yl)methylene)-2–(1-methyl-5–(4-methylbenzoyl)-1H-pyrrol-2-yl) acetohydrazide] | 168 to 170 °C | – | 16.8% | 10.4% | < 10% | 12.2% | < 10% | 12.4% | 16.8% | – | 15.9% | 32.8% | – | – | 24.6% | 34.2% | < 10% | 11.2% | < 10% | 19.3% | inhibition at 10 µM (OVCAR-3): < 10% |
| Cc1ccc(C(=O)c2ccc(CC(=O)NNC(=O)Nc3ccc(Cl)c(C(F)(F)F)c3)n2C)cc1 [Compound 8c, N-(4-Chloro-3-(trifluoromethyl)phenyl)-2–(2-(1-methyl-5–(4-methylbenzoyl)-1H-pyrrol-2-yl)acetyl)hydrazinecarboxamide] | 171 to 173 °C | < 10% | 10.9% | < 10% | < 10% | 19.7% | 10.5% | 16.7% | 17.5% | – | 11.3% | 38.4% | – | < 10% | < 10% | < 10% | 11.9% | < 10% | 16.8% | < 10% | inhibition at 10 µM (Colo 205): < 10%; inhibition at 10 µM (UACC-257): 22.9%; inhibition at 10 µM (HT29): < 10% |
| Cc1ccc(C(=O)c2ccc(CC(=O)NN3C(=O)CCC3=O)n2C)cc1 [Compound 7a, N-(2,5-Dioxopyrrolidin-1-yl)-2–(1-methyl-5–(4-methylbenzoyl)-1H-pyrrol-2-yl) acetamide] | > 300 °C | – | < 10% | < 10% | 11.2% | 12.4% | 19.1% | 13.7% | < 10% | < 10% | 20.2% | 41.2% | 14% | – | < 10% | 11.2% | – | – | < 10% | – | inhibition at 10 µM (HT29): < 10% |
